Reference: publication PMC5218480 (PLoS ONE, 2017)

Tested on: MV-4-11 cells
Test: Gene expression microarray analysis (Affymetrix PrimeView) and GSEA
Assay type: cell-based, human
Design: RFU PODN (11730768_x_at) / Fold change /veh PODN (11730768_x_at) / RFU LINC00158 (11744669_a_at) / Fold change /veh LINC00158 (11744669_a_at) / RFU DUSP10 (11751237_a_at) / Fold change /veh DUSP10 (11751237_a_at) / RFU ID3 (11757404_x_at) / Fold change /veh ID3 (11757404_x_at) / RFU PLEKHG5 (11737974_s_at) / Fold change /veh PLEKHG5 (11737974_s_at) / RFU LRRC4B (11730491_at) / Fold change /veh LRRC4B (11730491_at) / RFU GIMAP4 (11747438_a_at) / Fold change /veh GIMAP4 (11747438_a_at) / RFU KRT8 (11758183_x_at) / Fold change /veh KRT8 (11758183_x_at) / RFU CNN1 (11734310_a_at) / Fold change /veh CNN1 (11734310_a_at) / RFU VPS37D (11726825_at) / Fold change /veh VPS37D (11726825_at) / RFU C10orf10 (11716522_x_at) / Fold change /veh C10orf10 (11716522_x_at) / RFU KIR2DL2 /// KIR2DL4 /// KIR2DL5A /// KIR2DL5B /// KIR2DS1 /// KIR2DS2 /// KIR2DS3 /// KIR2DS4 /// KIR3DL3 /// KIR3DL3 /// KIR3DS1 (11738374_at) / Fold change /veh KIR2DL2 /// KIR2DL4 /// KIR2DL5A /// KIR2DL5B /// KIR2DS1 /// KIR2DS2 /// KIR2DS3 /// KIR2DS4 /// KIR3DL3 /// KIR3DL3 /// KIR3DS1 (11738374_at) / RFU C1QL1 (11718748_at) / Fold change /veh C1QL1 (11718748_at) / RFU TMPRSS4 (11747572_a_at) / Fold change /veh TMPRSS4 (11747572_a_at) / RFU HAMP (11756126_x_at) / Fold change /veh HAMP (11756126_x_at) / RFU RNFT2 (11725882_a_at) / Fold change /veh RNFT2 (11725882_a_at) / RFU NR4A2 (11747474_a_at) / Fold change /veh NR4A2 (11747474_a_at) / RFU ABCC12 (11746883_a_at) / Fold change /veh ABCC12 (11746883_a_at) / RFU TMEM136 (11760407_x_at) / Fold change /veh TMEM136 (11760407_x_at) / RFU CLDN22 /// WWC2 (11732394_at) / Fold change /veh CLDN22 /// WWC2 (11732394_at) / RFU HLA-DPB1 (11760878_x_at) / Fold change /veh HLA-DPB1 (11760878_x_at) / RFU SPINT1 (11716480_a_at) / Fold change /veh SPINT1 (11716480_a_at) / RFU GAP43 (11754022_s_at) / Fold change /veh GAP43 (11754022_s_at) / RFU A4GNT (11735810_at) / Fold change /veh A4GNT (11735810_at) / RFU PRB3 (11715151_x_at) / Fold change /veh PRB3 (11715151_x_at) / RFU TUBB4B (11761932_at) / Fold change /veh TUBB4B (11761932_at) / RFU CAPN14 (11732068_a_at) / Fold change /veh CAPN14 (11732068_a_at) / RFU TMCC2 (11721928_a_at) / Fold change /veh TMCC2 (11721928_a_at) / RFU IRGQ (11745062_a_at) / Fold change /veh IRGQ (11745062_a_at) / RFU FAM174B (11720279_a_at) / Fold change /veh FAM174B (11720279_a_at) / RFU TMPRSS4 (11748680_a_at) / Fold change /veh TMPRSS4 (11748680_a_at) / RFU FAM212B (11763350_a_at) / Fold change /veh FAM212B (11763350_a_at) / RFU PLEKHG5 (11743358_a_at) / Fold change /veh PLEKHG5 (11743358_a_at) / RFU ZSCAN30 (11745921_a_at) / Fold change /veh ZSCAN30 (11745921_a_at) / RFU CMKLR1 (11741424_a_at) / Fold change /veh CMKLR1 (11741424_a_at) / RFU LOC101060620 /// MAPK8IP1 (11723275_at) / Fold change /veh LOC101060620 /// MAPK8IP1 (11723275_at) / RFU SPTSSB (11747773_x_at) / Fold change /veh SPTSSB (11747773_x_at) / RFU PRSS12 (11739890_at) / Fold change /veh PRSS12 (11739890_at) / RFU BIN1 (11741810_x_at) / Fold change /veh BIN1 (11741810_x_at) / RFU WNT11 (11732464_a_at) / Fold change /veh WNT11 (11732464_a_at) / RFU C10orf10 (11716521_a_at) / Fold change /veh C10orf10 (11716521_a_at) / RFU C5orf56 (11738089_at) / Fold change /veh C5orf56 (11738089_at) / RFU CYB561 (11721691_x_at) / Fold change /veh CYB561 (11721691_x_at) / RFU ANKRD19P (11752326_a_at) / Fold change /veh ANKRD19P (11752326_a_at) / RFU OR2T12 /// OR2T33 /// OR2T8 (11738714_s_at) / Fold change /veh OR2T12 /// OR2T33 /// OR2T8 (11738714_s_at) / RFU VCAN (11748164_a_at) / Fold change /veh VCAN (11748164_a_at) / RFU JSRP1 (11732532_at) / Fold change /veh JSRP1 (11732532_at) / RFU KRTAP10-11 (11738290_x_at) / Fold change /veh KRTAP10-11 (11738290_x_at) / RFU MYO3A (11730013_a_at) / Fold change /veh MYO3A (11730013_a_at) / RFU EBF3 (11725865_a_at) / Fold change /veh EBF3 (11725865_a_at) / RFU CAMK2N1 (11719241_x_at) / Fold change /veh CAMK2N1 (11719241_x_at) / RFU C5orf56 (11738088_a_at) / Fold change /veh C5orf56 (11738088_a_at) / RFU OLFML3 (11715873_a_at) / Fold change /veh OLFML3 (11715873_a_at) / RFU LOC100653217 /// NTM (11731650_a_at) / Fold change /veh LOC100653217 /// NTM (11731650_a_at) / RFU MAPK11 (11762145_a_at) / Fold change /veh MAPK11 (11762145_a_at) / RFU FIZ1 (11724087_x_at) / Fold change /veh FIZ1 (11724087_x_at) / RFU OASL (11726364_x_at) / Fold change /veh OASL (11726364_x_at) / RFU SOX15 (11748057_x_at) / Fold change /veh SOX15 (11748057_x_at) / RFU CD79A (11719716_a_at) / Fold change /veh CD79A (11719716_a_at) / RFU HIST1H1D (11736915_at) / Fold change /veh HIST1H1D (11736915_at) / RFU CASKIN2 (11723855_a_at) / Fold change /veh CASKIN2 (11723855_a_at) / RFU LOC730098 (11760151_x_at) / Fold change /veh LOC730098 (11760151_x_at) / RFU OR4N2 (11742367_at) / Fold change /veh OR4N2 (11742367_at) / RFU PRRT2 (11749266_a_at) / Fold change /veh PRRT2 (11749266_a_at) / RFU SNX32 (11753110_a_at) / Fold change /veh SNX32 (11753110_a_at) / RFU CDHR5 (11726645_a_at) / Fold change /veh CDHR5 (11726645_a_at) / RFU RCAN1 (11760418_a_at) / Fold change /veh RCAN1 (11760418_a_at) / RFU FAM167A (11723789_a_at) / Fold change /veh FAM167A (11723789_a_at) / RFU FAM26E (11764081_at) / Fold change /veh FAM26E (11764081_at) / RFU ISYNA1 (11749810_s_at) / Fold change /veh ISYNA1 (11749810_s_at) / RFU ACY1 (11761880_at) / Fold change /veh ACY1 (11761880_at) / RFU 11764098_at / Fold change /veh 11764098_at / RFU SAMD14 (11745864_x_at) / Fold change /veh SAMD14 (11745864_x_at) / RFU NPB (11741838_a_at) / Fold change /veh NPB (11741838_a_at) / RFU TMPRSS6 (11731388_a_at) / Fold change /veh TMPRSS6 (11731388_a_at) / RFU KRTAP10-2 (11738614_at) / Fold change /veh KRTAP10-2 (11738614_at) / RFU ARHGAP8 /// PRR5-ARHGAP8 (11727945_x_at) / Fold change /veh ARHGAP8 /// PRR5-ARHGAP8 (11727945_x_at) / RFU KRTAP5-7 /// NADSYN1 (11734609_at) / Fold change /veh KRTAP5-7 /// NADSYN1 (11734609_at) / RFU RASL12 (11751679_a_at) / Fold change /veh RASL12 (11751679_a_at) / RFU CDKN2B (11736163_a_at) / Fold change /veh CDKN2B (11736163_a_at) / RFU PRF1 (11729649_at) / Fold change /veh PRF1 (11729649_at) / RFU, ZNF638 /// ZNF638-IT1 / Fold change vs veh, ZNF638 /// ZNF638-IT1 / RFU, PANK3 / Fold change vs veh, PANK3 / RFU, SH3YL1 / Fold change vs veh, SH3YL1 / RFU, ZEB2 / Fold change vs veh, ZEB2 / RFU, NRIP1 / Fold change vs veh, NRIP1 / RFU, PTTG1IP / Fold change vs veh, PTTG1IP / RFU, CAPN2 / Fold change vs veh, CAPN2 / RFU, MED14 / Fold change vs veh, MED14 / RFU, SNORA58 / Fold change vs veh, SNORA58 / RFU, C1orf63 / Fold change vs veh, C1orf63 / RFU, LRRFIP1 / Fold change vs veh, LRRFIP1 / RFU, NDUFAF7 / Fold change vs veh, NDUFAF7 / RFU, SLC12A2 / Fold change vs veh, SLC12A2 / RFU, IBTK / Fold change vs veh, IBTK / RFU, ESF1 / Fold change vs veh, ESF1 / Fold change vs veh, TMEM50B / RFU, TAOK1 / Fold change vs veh, TAOK1 / RFU, ACBD3 / Fold change vs veh, ACBD3 / RFU, TMA16 / Fold change vs veh, TMA16 / RFU, RWDD3 / Fold change vs veh, RWDD3 / RFU, BCAT1 / Fold change vs veh, BCAT1 / RFU, EDEM3 / Fold change vs veh, EDEM3 / RFU, TMEM33 / Fold change vs veh, TMEM33 / RFU, WDR75 / Fold change vs veh, WDR75 / RFU, AHCTF1 / Fold change vs veh, AHCTF1 / RFU, TFRC / Fold change vs veh, TFRC / RFU, ZDHHC17 / Fold change vs veh, ZDHHC17 / RFU, NOM1 / Fold change vs veh, NOM1 / RFU, ARL8B / Fold change vs veh, ARL8B / RFU, ZBTB11 / Fold change vs veh, ZBTB11 / RFU, TAMM41 / Fold change vs veh, TAMM41 / RFU, KIAA1704 /// LOC100996395 / Fold change vs veh, KIAA1704 /// LOC100996395 / RFU, ING1 / Fold change vs veh, ING1 / RFU, TRMT61B / Fold change vs veh, TRMT61B / RFU, FUBP3 / Fold change vs veh, FUBP3 / RFU, TP53 / Fold change vs veh, TP53 / RFU, TNKS2 / Fold change vs veh, TNKS2 / RFU, ZFP14 / Fold change vs veh, ZFP14 / RFU, ACTR2 / Fold change vs veh, ACTR2 / RFU, PPP3R1 / Fold change vs veh, PPP3R1 / RFU, PIK3R1 / Fold change vs veh, PIK3R1 / RFU, HNRNPA1 / Fold change vs veh, HNRNPA1 / RFU, RNF170 / Fold change vs veh, RNF170 / RFU, ZNF28 / Fold change vs veh, ZNF28 / RFU, RNGTT / Fold change vs veh, RNGTT / RFU, OGT / Fold change vs veh, OGT / RFU, BRD1 / Fold change vs veh, BRD1 / RFU, MARS / Fold change vs veh, MARS / RFU, ZNF655 / Fold change vs veh, ZNF655 / RFU, FAHD1 / Fold change vs veh, FAHD1 / RFU, BDP1 / Fold change vs veh, BDP1 / RFU, LRRCC1 / Fold change vs veh, LRRCC1 / RFU, ARID1A / Fold change vs veh, ARID1A / RFU, ZNF146 / Fold change vs veh, ZNF146 / RFU, ZNF330 / Fold change vs veh, ZNF330 / RFU, GPN3 / Fold change vs veh, GPN3 / RFU, C9orf123 / Fold change vs veh, C9orf123 / RFU, N4BP2L2 / Fold change vs veh, N4BP2L2 / RFU, ARFIP1 / Fold change vs veh, ARFIP1 / RFU, FAM179B / Fold change vs veh, FAM179B / RFU, BCL10 / Fold change vs veh, BCL10 / RFU, UHRF1BP1L / Fold change vs veh, UHRF1BP1L / RFU, BET1 / Fold change vs veh, BET1 / RFU, CNOT2 / Fold change vs veh, CNOT2 / RFU, ZNF268 / Fold change vs veh, ZNF268 / Fold change vs veh, ZNF507 / RFU, DGCR2 / Fold change vs veh, DGCR2 / RFU, WDSUB1 / Fold change vs veh, WDSUB1 / Fold change vs veh, HSP90B1 /// MIR3652 / RFU, ADSS / Fold change vs veh, ADSS / RFU, GK / Fold change vs veh, GK / RFU, ZNF148 / Fold change vs veh, ZNF148 / RFU, TAF9 / Fold change vs veh, TAF9 / RFU, SLC1A5 / Fold change vs veh, SLC1A5 / RFU, SLMO2 / Fold change vs veh, SLMO2 / RFU, ABCC4 / Fold change vs veh, ABCC4 / RFU, LOC101060439 /// RAP1B / Fold change vs veh, LOC101060439 /// RAP1B / RFU, RFX7 / Fold change vs veh, RFX7 / RFU, GTPBP10 / Fold change vs veh, GTPBP10 / RFU, CNEP1R1 / Fold change vs veh, CNEP1R1 / RFU, BIVM-ERCC5 /// ERCC5 / Fold change vs veh, BIVM-ERCC5 /// ERCC5 / RFU, ILF3 / Fold change vs veh, ILF3 / RFU 11762660_at / Fold change /veh 11762660_at / RFU VCAN (11757783_s_at) / Fold change /veh VCAN (11757783_s_at) / RFU DDX43 (11728927_at) / Fold change /veh DDX43 (11728927_at) / RFU KRT8 (11758188_x_at) / Fold change /veh KRT8 (11758188_x_at) / RFU NKD1 (11759106_at) / Fold change /veh NKD1 (11759106_at) / RFU SRD5A1 (11742802_a_at) / Fold change /veh SRD5A1 (11742802_a_at) / RFU TPSAB1 /// TPSB2 (11721975_s_at) / Fold change /veh TPSAB1 /// TPSB2 (11721975_s_at) / RFU GSTM3 (11746129_a_at) / Fold change /veh GSTM3 (11746129_a_at) / RFU IL23R (11737362_x_at) / Fold change /veh IL23R (11737362_x_at) / RFU TMEM51 (11727254_a_at) / Fold change /veh TMEM51 (11727254_a_at) / RFU PIWIL2 (11732686_x_at) / Fold change /veh PIWIL2 (11732686_x_at) / RFU ORM1 (11744905_x_at) / Fold change /veh ORM1 (11744905_x_at) / RFU CCDC152 (11743942_at) / Fold change /veh CCDC152 (11743942_at) / RFU ECM1 (11717891_a_at) / Fold change /veh ECM1 (11717891_a_at) / RFU IL23R (11748794_a_at) / Fold change /veh IL23R (11748794_a_at) / RFU TNFAIP8L3 (11732012_x_at) / Fold change /veh TNFAIP8L3 (11732012_x_at) / RFU MBOAT4 (11741988_at) / Fold change /veh MBOAT4 (11741988_at) / RFU 11764193_at / Fold change /veh 11764193_at / RFU TMEM53 (11763286_at) / Fold change /veh TMEM53 (11763286_at) / RFU MAGEB2 (11727129_at) / Fold change /veh MAGEB2 (11727129_at) / RFU TMEM200A (11744735_a_at) / Fold change /veh TMEM200A (11744735_a_at) / RFU CCDC152 (11751479_a_at) / Fold change /veh CCDC152 (11751479_a_at) / RFU FAM211A (11726209_a_at) / Fold change /veh FAM211A (11726209_a_at) / RFU RGS16 (11746705_a_at) / Fold change /veh RGS16 (11746705_a_at) / RFU VCAN (11755009_s_at) / Fold change /veh VCAN (11755009_s_at) / RFU RHOB (11743442_s_at) / Fold change /veh RHOB (11743442_s_at) / RFU RGS16 (11720943_a_at) / Fold change /veh RGS16 (11720943_a_at) / RFU RGS16 (11720944_at) / Fold change /veh RGS16 (11720944_at) / RFU, VPS4B / Fold change vs veh, VPS4B / RFU, CREB1 / Fold change vs veh, CREB1 / RFU, DNAJC13 / Fold change vs veh, DNAJC13 / RFU, GNAQ / Fold change vs veh, GNAQ / RFU, CDK5R1 / Fold change vs veh, CDK5R1 / RFU, ZRANB3 / Fold change vs veh, ZRANB3 / RFU, CUL4A / Fold change vs veh, CUL4A / RFU, CCNY / Fold change vs veh, CCNY / RFU, UFL1 / Fold change vs veh, UFL1 / RFU, COG3 / Fold change vs veh, COG3 / RFU, DIAPH2 / Fold change vs veh, DIAPH2 / RFU, SKA2 / Fold change vs veh, SKA2 / RFU, AFF3 / Fold change vs veh, AFF3 / RFU, LMF1 / Fold change vs veh, LMF1 / RFU, IPO11 / Fold change vs veh, IPO11 / RFU, DFFB / Fold change vs veh, DFFB / RFU, FOXP1 / Fold change vs veh, FOXP1 / RFU, CARD8 / Fold change vs veh, CARD8 / RFU, STRN3 / Fold change vs veh, STRN3 / RFU, ADK / Fold change vs veh, ADK / RFU, RASSF2 / Fold change vs veh, RASSF2 / RFU, WIPF1 / Fold change vs veh, WIPF1 / RFU, LARP1B / Fold change vs veh, LARP1B / RFU, RASA1 / Fold change vs veh, RASA1 / RFU, RB1 / Fold change vs veh, RB1 / RFU, PPFIA1 / Fold change vs veh, PPFIA1 / RFU, MAT2A / Fold change vs veh, MAT2A / RFU, CCT5 / Fold change vs veh, CCT5 / RFU, WDR92 / Fold change vs veh, WDR92 / RFU, CUX1 / Fold change vs veh, CUX1 / RFU, TTC7A / Fold change vs veh, TTC7A / RFU, TMEM135 / Fold change vs veh, TMEM135 / RFU, DEPTOR / Fold change vs veh, DEPTOR / RFU, CPM / Fold change vs veh, CPM / RFU, DNAJB6 / Fold change vs veh, DNAJB6 / RFU, CACNA2D3 / Fold change vs veh, CACNA2D3 / RFU, DTX4 / Fold change vs veh, DTX4 / RFU, TFCP2 / Fold change vs veh, TFCP2 / RFU, GMCL1 /// GMCL1P1 / Fold change vs veh, GMCL1 /// GMCL1P1 / RFU, AEBP2 / Fold change vs veh, AEBP2 / RFU, SNHG1 /// SNORD22 /// SNORD25 /// SNORD26 /// SNORD27 /// SNORD28 /// SNORD29 /// SNORD31 / Fold change vs veh, SNHG1 /// SNORD22 /// SNORD25 /// SNORD26 /// SNORD27 /// SNORD28 /// SNORD29 /// SNORD31 / Fold change (Aza/veh), C12orf56 (ProbeSet 11735607_a_at) / Fold change (ACY-1035/veh), C12orf56 (ProbeSet 11735607_a_at) / Fold change (Aza/veh), FGFR1OP (ProbeSet 11751329_s_at) / Fold change (ACY-1035/veh), FGFR1OP (ProbeSet 11751329_s_at) / Fold change (Aza/veh), VPS36 (ProbeSet 11739960_a_at) / Fold change (ACY-1035/veh), VPS36 (ProbeSet 11739960_a_at) / RFU SYPL1 (11715823_x_at) / Fold change /veh SYPL1 (11715823_x_at) / RFU IGFBP7 (11715501_s_at) / Fold change /veh IGFBP7 (11715501_s_at) / RFU REEP3 (11722064_at) / Fold change /veh REEP3 (11722064_at) / RFU IGLL1 (11728026_x_at) / Fold change /veh IGLL1 (11728026_x_at): dose or concentration left out as unconfirmed
Conditions: ProbeSet 11730252_s_at; LIST B

Structure (SMILES): Nc1ncn([C@@H]2O[C@H](CO)[C@@H](O)[C@H]2O)c(=O)n1 [azacitidine]
- Fold change vs veh, AHCTF1: 0.94
